Measurements as given in ChEMBL document CHEMBL4808186, “Structure-Based Discovery of Pyrimidine Aminobenzene Derivatives as Potent Oral Reversal Agents against P-gp- and BCRP-Mediated Multidrug Resistance” (J Med Chem, 2021).
Active and inactive are the calls of the source. No cut-off for these calls is given here.

Experiments:
[1] = AUC (0 to t) in Sprague-Dawley rat at 20 mg/kg, po by UHPLC-MS analysis; assay type: ADME, organism-based; design: dose 20 mg/kg; conditions: in vivo
[2] = Bioavailability in Sprague-Dawley rat at 5 mg/kg, iv by UHPLC-MS analysis; assay type: ADME, organism-based; conditions: in vivo
[3] = Cmax in Sprague-Dawley rat at 20 mg/kg, po in presence of N-(2-(6,7-Dimethoxy-3,4-dihydroisoquinolin-2(1H)-yl)ethyl)-3-((4-(furan-2-yl)pyrimidin-2-yl)amino)-4-methylbenzamide by UHPLC-MS analysis; assay type: ADME, organism-based; design: route oral, dose 20 mg/kg; conditions: in vivo
in vivo [4] = conditions: Sprague-Dawley, rat, iv, 5 mg/kg
Description: Half life in Sprague-Dawley rat at 5 mg/kg, iv by UHPLC-MS analysis

in vivo [5] = conditions: Sprague-Dawley, rat, po, 20 mg/kg
Description: Half life in Sprague-Dawley rat at 20 mg/kg, po by UHPLC-MS analysis

[6] = Cmax in Sprague-Dawley rat at 5 mg/kg, iv by UHPLC-MS analysis; assay type: ADME, organism-based; design: route intravenous, dose 5 mg/kg; conditions: in vivo
[7] = Oral bioavailability in Sprague-Dawley rat at 20 mg/kg by UHPLC-MS analysis; assay type: ADME, organism-based; conditions: in vivo
[8] = Apparent oral volume of distribution in Sprague-Dawley rat at 5 mg/kg, iv by UHPLC-MS analysis; assay type: ADME, organism-based; conditions: in vivo
[9] = Apparent oral clearance in Sprague-Dawley rat at 20 mg/kg, po in presence of N-(2-(6,7-Dimethoxy-3,4-dihydroisoquinolin-2(1H)-yl)ethyl)-3-((4-(furan-2-yl)pyrimidin-2-yl)amino)-4-methylbenzamide by UHPLC-MS analysis; assay type: ADME, organism-based; conditions: in vivo
[10] = Tmax in Sprague-Dawley rat at 20 mg/kg, po in presence of N-(2-(6,7-Dimethoxy-3,4-dihydroisoquinolin-2(1H)-yl)ethyl)-3-((4-(furan-2-yl)pyrimidin-2-yl)amino)-4-methylbenzamide by UHPLC-MS analysis; assay type: ADME, organism-based; conditions: in vivo
[11] = Oral bioavailability in Sprague-Dawley rat at 20 mg/kg in presence of N-(2-(6,7-Dimethoxy-3,4-dihydroisoquinolin-2(1H)-yl)ethyl)-3-((4-(furan-2-yl)pyrimidin-2-yl)amino)-4-methylbenzamide by UHPLC-MS analysis; assay type: ADME, organism-based; conditions: in vivo
[12] = Cmax in Sprague-Dawley rat at 20 mg/kg, po by UHPLC-MS analysis; assay type: ADME, organism-based; design: route oral, dose 20 mg/kg; conditions: in vivo
[13] = Tmax in Sprague-Dawley rat at 5 mg/kg, iv by UHPLC-MS analysis; assay type: ADME, organism-based; conditions: in vivo
[14] = Apparent oral clearance in Sprague-Dawley rat at 20 mg/kg, po by UHPLC-MS analysis; assay type: ADME, organism-based; conditions: in vivo
[15] = AUC (0 to t) in Sprague-Dawley rat at 5 mg/kg, iv by UHPLC-MS analysis; assay type: ADME, organism-based; design: dose 5 mg/kg; conditions: in vivo
[16] = AUC (0 to t) in Sprague-Dawley rat at 20 mg/kg, po in presence of N-(2-(6,7-Dimethoxy-3,4-dihydroisoquinolin-2(1H)-yl)ethyl)-3-((4-(furan-2-yl)pyrimidin-2-yl)amino)-4-methylbenzamide by UHPLC-MS analysis; assay type: ADME, organism-based; design: dose 20 mg/kg; conditions: in vivo
[17] = Apparent oral clearance in Sprague-Dawley rat at 5 mg/kg, iv by UHPLC-MS analysis; assay type: ADME, organism-based; conditions: in vivo
[18] = Apparent oral volume of distribution in Sprague-Dawley rat at 20 mg/kg, po by UHPLC-MS analysis; assay type: ADME, organism-based; conditions: in vivo
[19] = Apparent oral volume of distribution in Sprague-Dawley rat at 20 mg/kg, po in presence of N-(2-(6,7-Dimethoxy-3,4-dihydroisoquinolin-2(1H)-yl)ethyl)-3-((4-(furan-2-yl)pyrimidin-2-yl)amino)-4-methylbenzamide by UHPLC-MS analysis; assay type: ADME, organism-based; conditions: in vivo
[20] = Tmax in Sprague-Dawley rat at 20 mg/kg, po by UHPLC-MS analysis; assay type: ADME, organism-based; conditions: in vivo
K562/A02 [21] = test: Antitumor activity against human K562/A02 cells xenografted in BALB/c mouse assessed as reduction in tumor weight at 4 mg/kg, iv once every 2 days for 14 days in presence of 2 mg/kg adriamycin; assay type: functional, organism-based; conditions: time 2.0 day
[22] = target: T1, ATP-dependent translocase ABCB1 (Homo sapiens, UniProt P08183); test: Inhibition of P-gp-mediated multidrug resistance in human K562/A02 cells assessed as Adriamycin accumulation pretreated 1 hr followed by treated with adriamycin measured after 180 mins by flow cytometry; assay type: cell-based; conditions: k562/a02, 4 h, time 240 min
[23] = target: T1, ATP-dependent translocase ABCB1; test: Inhibition of P-gp-mediated multidrug resistance in human K562/A02 cells assessed as suppression of Rh123 efflux at 10 uM treated after 90 mins of Rh123 treatment measure up to 120 mins by flow cytometry; assay type: cell-based; conditions: k562/a02, 10 µM
MDCK-II [24] = test: Inhibition of BCRP-mediated multidrug resistance in MDCK-II cells assessed as mitoxantrone accumulation at 0.1 to 5 uM pretreated 1 hr followed by treated with mitoxantrone measured after 180 mins by flow cytometry; assay type: cell-based; conditions: Canis lupus familiaris, dose 0.1-5 µM, time 240.0 min
MDCK-II [25] = test: cells; conditions: Canis lupus familiaris, 48 h
Description: Cytotoxicity against MDCK-II cells incubated for 48 hrs by MTT assay

MDCK-II [26] = test: Inhibition of BCRP-mediated multidrug resistance in MDCK-II cells assessed as mitoxantrone accumulation […] pretreated 1 hr followed by treated with mitoxantrone measured after 180 mins by fluorescence microscopy; assay type: cell-based; conditions: Canis lupus familiaris, time 240.0 min
[27] = Toxicity in BALB/c mouse xenografted with human K562/A02 cells assessed as degeneration and necrosis of liver tissue at 4 mg/kg, iv once every 2 days for 14 days in presence of 2 mg/kg adriamycin by HE staining; assay type: organism-based; conditions: in vivo, 48 h, time 2 day
MDCK-II [28] = test: cells; conditions: Canis lupus familiaris, 48 h; remark: listed apart in the source
Description: Cytotoxicity against BCRP-overexpressing MDCK-II cells incubated for 48 hrs by MTT assay

K562/A02 [29] = test: Cytotoxicity against P-gp overexpressing human K562/A02 cells incubated for 48 hrs by MTT assay; assay type: functional, cell-based; conditions: K562/A02, 48 h, read-out: IC50
MDCK-II [30] = test: Effect on BCRP expression in MDCK-II cells at 1 to 10 uM incubated for 48 hrs by Western blot analysis; assay type: functional, cell-based; conditions: Canis lupus familiaris, dose 1-10 µM
K562/A02 [31] = test: Potentiation of adriamycin-induced apoptosis in human K562/A02 cells assessed as viable cells at 5 uM incubated for 48 hrs in presence of 10 uM adriamycin by Annexin-V/FITC-based flow cytometry (reference value: 96.5%); assay type: functional; conditions: read-out: Activity
K562/A02 [32] = test: Potentiation of adriamycin-induced apoptosis in human K562/A02 cells assessed as viable cells at 10 uM incubated for 48 hrs in presence of 10 uM adriamycin by Annexin-V/FITC-based flow cytometry (reference value: 96.5%); assay type: functional; conditions: read-out: Activity
K562/A02 [33] = test: Potentiation of adriamycin-induced apoptosis in human K562/A02 cells assessed as necrotic cells at 10 uM incubated for 48 hrs in presence of 10 uM adriamycin by Annexin-V/FITC-based flow cytometry (reference value: 0.3%); assay type: functional
K562/A02 [34] = test: Potentiation of adriamycin-induced apoptosis in human K562/A02 cells assessed as late apoptotic cells at 10 uM incubated for 48 hrs in presence of 10 uM adriamycin by Annexin-V/FITC-based flow cytometry (reference value: 0.4%); assay type: functional
K562/A02 [35] = test: Antitumor activity against human K562/A02 cells xenografted in BALB/c mouse assessed as degeneration and necrosis of tumor tissue at 4 mg/kg, iv single dose in presence of 2 mg/kg adriamycin by HE staining; assay type: functional, organism-based
K562/A02 [36] = test: Antitumor activity against human K562/A02 cells xenografted in BALB/c mouse assessed as reduction in tumor volume at 4 mg/kg, iv once every 2 days for 14 days in presence of 2 mg/kg adriamycin; assay type: functional, organism-based; conditions: time 2.0 day
[37] = n-Octanol/water partition coefficient, logP of the compound by UHPLC analysis; assay type: physicochemical
K562/A02 [38] = test: Antitumor activity against human K562/A02 cells xenografted in BALB/c mouse assessed as reduction in tumor size at 4 mg/kg, iv once every 2 days for 14 days in presence of 2 mg/kg adriamycin; assay type: functional, organism-based; conditions: time 2.0 day
K562/A02 [39] = test: Potentiation of adriamycin-induced apoptosis in human K562/A02 cells assessed as viable cells at 0.5 uM incubated for 48 hrs in presence of 10 uM adriamycin by Annexin-V/FITC-based flow cytometry (reference value: 96.5%); assay type: functional; conditions: read-out: Activity
K562/A02 [40] = test: Potentiation of adriamycin-induced apoptosis in human K562/A02 cells assessed as necrotic cells at 5 uM incubated for 48 hrs in presence of 10 uM adriamycin by Annexin-V/FITC-based flow cytometry (reference value: 0.3%); assay type: functional
[41] = target: T1, ATP-dependent translocase ABCB1; test: Inhibition of P-gp-mediated multidrug resistance in human K562/A02 cells assessed as Adriamycin accumulation at 1 to 10 uM pretreated 1 hr followed by treated with adriamycin measured after 180 mins by fluorescence microscopy; assay type: cell-based; conditions: k562/a02, 4 h, dose 1-10 µM, time 240 min
K562/A02 [42] = test: Potentiation of adriamycin-induced apoptosis in human K562/A02 cells assessed as early apoptotic cells at 5 uM incubated for 48 hrs in presence of 10 uM adriamycin by Annexin-V/FITC-based flow cytometry (reference value: 2.9%); assay type: functional
K562/A02 [43] = test: Potentiation of adriamycin-induced apoptosis in human K562/A02 cells assessed as late apoptotic cells at 5 uM incubated for 48 hrs in presence of 10 uM adriamycin by Annexin-V/FITC-based flow cytometry (reference value: 0.4%); assay type: functional
K562/A02 [44] = test: Potentiation of adriamycin-induced apoptosis in human K562/A02 cells assessed as late apoptotic cells at 0.5 uM incubated for 48 hrs in presence of 10 uM adriamycin by Annexin-V/FITC-based flow cytometry (reference value: 0.4%); assay type: functional
K562/A02 [45] = test: Effect on P-gp expression in human K562/A02 cells at 1 to 10 uM incubated for 48 hrs by Western blot analysis; assay type: functional, cell-based; conditions: dose 1-10 µM
K562/A02 [46] = test: Potentiation of adriamycin-induced apoptosis in human K562/A02 cells assessed as early apoptotic cells at 10 uM incubated for 48 hrs in presence of 10 uM adriamycin by Annexin-V/FITC-based flow cytometry (reference value: 2.9%); assay type: functional
K562/A02 [47] = test: Potentiation of adriamycin-induced apoptosis in human K562/A02 cells assessed as necrotic cells at 0.5 uM incubated for 48 hrs in presence of 10 uM adriamycin by Annexin-V/FITC-based flow cytometry (reference value: 0.3%); assay type: functional
[48] = Toxicity in BALB/c mouse xenografted with human K562/A02 cells assessed as degeneration and necrosis of kidney tissue at 4 mg/kg, iv once every 2 days for 14 days in presence of 2 mg/kg adriamycin by HE staining; assay type: organism-based; conditions: in vivo, 48 h, time 2 day
K562/A02 [49] = test: Potentiation of adriamycin-induced apoptosis in human K562/A02 cells assessed as early apoptotic cells at 0.5 uM incubated for 48 hrs in presence of 10 uM adriamycin by Annexin-V/FITC-based flow cytometry (reference value: 2.9%); assay type: functional
K562 = test: Cytotoxicity against human K562 cells incubated for 48 hrs by MTT assay; assay type: functional, cell-based; conditions: K562, 48 h

T1 sequence (P08183 whole entry): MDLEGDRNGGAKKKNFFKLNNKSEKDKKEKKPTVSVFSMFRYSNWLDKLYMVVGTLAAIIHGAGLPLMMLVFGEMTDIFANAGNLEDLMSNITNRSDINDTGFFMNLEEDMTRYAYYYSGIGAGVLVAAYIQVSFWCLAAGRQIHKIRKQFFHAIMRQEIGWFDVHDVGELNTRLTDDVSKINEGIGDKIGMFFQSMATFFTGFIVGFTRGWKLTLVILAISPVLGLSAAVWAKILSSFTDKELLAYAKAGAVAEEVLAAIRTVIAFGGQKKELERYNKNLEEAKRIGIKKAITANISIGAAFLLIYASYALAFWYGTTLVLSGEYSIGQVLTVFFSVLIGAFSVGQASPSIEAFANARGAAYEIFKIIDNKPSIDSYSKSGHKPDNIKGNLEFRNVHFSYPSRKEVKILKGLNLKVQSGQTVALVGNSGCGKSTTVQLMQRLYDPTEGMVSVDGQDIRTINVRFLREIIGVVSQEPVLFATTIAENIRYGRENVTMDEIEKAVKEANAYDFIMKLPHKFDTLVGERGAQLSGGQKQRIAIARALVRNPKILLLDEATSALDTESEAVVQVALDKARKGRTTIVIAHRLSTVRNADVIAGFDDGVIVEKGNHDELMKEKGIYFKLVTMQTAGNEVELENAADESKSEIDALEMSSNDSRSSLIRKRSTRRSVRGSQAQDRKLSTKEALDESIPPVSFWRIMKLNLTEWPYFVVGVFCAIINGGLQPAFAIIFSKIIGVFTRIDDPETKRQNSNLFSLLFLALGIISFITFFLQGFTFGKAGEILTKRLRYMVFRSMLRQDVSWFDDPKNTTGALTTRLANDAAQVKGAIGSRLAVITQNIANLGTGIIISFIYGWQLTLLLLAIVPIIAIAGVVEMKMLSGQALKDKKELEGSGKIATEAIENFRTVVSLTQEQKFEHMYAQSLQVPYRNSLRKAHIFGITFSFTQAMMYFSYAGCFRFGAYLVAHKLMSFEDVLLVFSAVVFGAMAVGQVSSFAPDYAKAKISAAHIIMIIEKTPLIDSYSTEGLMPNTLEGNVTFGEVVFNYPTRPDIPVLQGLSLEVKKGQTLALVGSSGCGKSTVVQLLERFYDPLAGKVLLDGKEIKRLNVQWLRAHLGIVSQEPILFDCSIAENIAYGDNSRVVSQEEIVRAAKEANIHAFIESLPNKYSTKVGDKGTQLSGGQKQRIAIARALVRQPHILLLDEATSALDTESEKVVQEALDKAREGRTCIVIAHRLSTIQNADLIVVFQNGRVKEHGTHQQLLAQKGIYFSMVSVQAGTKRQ

CC(=O)O[C@H]1C(=O)[C@@]2(C)[C@H]([C@H](OC(=O)c3ccccc3)[C@]3(O)C[C@H](OC(=O)[C@H](O)[C@@H](NC(=O)c4ccccc4)c4ccccc4)C(C)=C1C3(C)C)[C@]1(OC(C)=O)CO[C@@H]1C[C@@H]2O [PACLITAXEL]
AUC(0-t) [1]: 611 ng·h/mL | F [2]: 100% | Cmax [3]: 853 ng/mL | half-life (in vivo [4]): 7.2 min | half-life (in vivo [5]): 1.35 h | Cmax [6]: 926 ng/mL | bioavailability [7]: 8.8% | Vd/F [8]: 5.06 L | CL/F [9]: 4.43 L/h | Tmax [10]: 2.65 h | bioavailability [11]: 64.7% | Cmax [12]: 233 ng/mL | Tmax [13]: 0.44 h | CL/F [14]: 546 mL/min | AUC(0-t) [15]: 1730 ng·h/mL | AUC(0-t) [16]: 4490 ng·h/mL | CL/F [17]: 2.88 L/h | Vd/F [18]: 67.4 L | Vd/F [19]: 19.06 L | Tmax [20]: 2 h

COc1cc2c(cc1OC)CN(CCNC(=O)c1ccc(C)c(Nc3nccc(-c4ccco4)n3)c1)CC2
Activity (K562/A02 [21]): Active | Activity [22]: Dose-Dependent Effect | Activity [23]: Active | Activity (MDCK-II [24]): Active | IC50 (MDCK-II [25]): > 100 µM | Activity (MDCK-II [26]): Active | Activity [27]: Non-Toxic | IC50 (MDCK-II [28]): > 100 µM | IC50 (K562/A02 [29]): > 100 µM | Activity (MDCK-II [30]): inactive | viability at 5 µM (K562/A02 [31]): 76.2% | viability at 10 µM (K562/A02 [32]): 68.3% | Activity (K562/A02 [33]): 2.5% | Activity (K562/A02 [34]): 9.8% | Activity (K562/A02 [35]): Active | Activity (K562/A02 [36]): Active | logP [37]: 2.13 | Activity (K562/A02 [38]): Active | viability at 0.5 µM (K562/A02 [39]): 84.8% | Activity (K562/A02 [40]): 2.4% | Activity [41]: Active | Activity (K562/A02 [42]): 12.3% | Activity (K562/A02 [43]): 9.2% | Activity (K562/A02 [44]): 3.2% | Activity (K562/A02 [45]): inactive | Activity (K562/A02 [46]): 19.3% | Activity (K562/A02 [47]): 1.1% | Activity [48]: Non-Toxic | Activity (K562/A02 [49]): 10.9% | IC50 (K562): > 100 µM
